In patent US9758526B2, “Quinoline-substituted compound” (TAIHO PHARMACEUTICAL CO., LTD., priority 2013, dated 2017):
pIC50: −log10 of the molar value.

What was measured:
EGFR (d746-750) = biological target: T1, EGFR (d746-750) (Homo sapiens, UniProt P00533, DEL746-750); assay: EGFR (d746-750) kinase inhibitory activity; format: biochemical; details: ATP 5 μM, kinase reaction 90 minutes
T1 construct: purchased Carna Biosciences, Inc
Description: (§1) Among the materials of the inhibitory activity measurement, the substrate peptide and the kinase protein were obtained as follows. A peptide with biotinylated N-terminus (biotin-EEPLYWSFPAKKK) was synthesized with reference to FL-Peptide 22, a reagent for LabChip® series of PerkinElmer, Inc. For the kinase protein, a purified recombinant human EGFR (T790M/L858R) protein of Carna Biosciences, Inc. was purchased.
(§2) The inhibitory activity measurement was performed as follows. The compounds of the present invention were individually dissolved in dimethyl sulfoxide (DMSO), and serial dilutions of these compounds were prepared using DMSO. Subsequently, a solution containing the substrate peptide (final concentration: 250 nM), magnesium chloride (final concentration: 10 mM), manganese chloride (final concentration: 10 mM), and ATP (final concentration: 1 μM) in a buffer solution for kinase reaction (Carna Biosciences, Inc.) was mixed with the dilutions of the compounds (final concentration of DMSO upon kinase reaction: 2.5%) or DMSO (final concentration: 2.5%). EGFR (T790M/L858R) protein was further added thereto, and the mixtures were incubated at 25° C. for 120 minutes to carry out a kinase reaction. EDTA was added thereto to a final concentration of 24 mM to thereby terminate the reaction. A phosphorylated thyrosine detection solution containing europium (Eu)-labeled anti-phosphorylated tyrosine antibody PT66 (PerkinElmer, Inc.) and SureLight APC-SA (PerkinElmer, Inc.) was added to the reaction mixtures, and the mixtures were allowed to stand at room temperature for 2 hours or more. For the background, a sample to which EDTA was added before addition of EGFR (T790M/L858R) protein was incubated at 25° C. for 120 minutes, using DMSO instead of the DMSO solution of the compound. The detection solution was also added to this sample, and the mixture was allowed to stand for 2 hours or more. Finally, for all of the test samples, the amount of fluorescence at the time of irradiation of excitation light having a wavelength of 337 nm was measured at dual wavelengths of 620 nm and 665 nm by PHERAstar FS (BMG LABTECH), and a ratio of the fluorescence amounts at the two wavelengths was obtained as data.
(§3) Based on the above rates, phosphorylation inhibition rates (%) were calculated for the samples to which various concentrations of the compound solutions were added. Finally, the obtained reaction inhibition rates (%) at the respective concentrations were plotted for each compound, and the IC50 value (nM), which is a compound concentration at which phosphorylation by EGFR (T790M/L858R) is inhibited by 50%, was determined using XLfit curve-fitting software (IDBS).
The inhibitory activities of the compounds of the present invention against EGFR (d746-750) kinase activity were measured.
The materials, the measurement method, and the data analysis method were substantially the same as those shown in the above description regarding “Measurement of EGFR (T790M/L858R) Kinase Inhibitory Activity,” except that a purified recombinant human EGFR (d746-750) protein purchased from Carna Biosciences, Inc. was used as the kinase protein, the measurement was performed with ATP at a final concentration of 5 μM, and the incubation for the kinase reaction was performed for 90 minutes. Finally, the IC50 value (nM) of each compound with respect to EGFR (d746-750) was determined by data analysis.

EGFR (WT) = biological target: T2, EGFR (WT) (Homo sapiens, UniProt P00533); assay: EGFR (WT) kinase inhibitory activity; format: biochemical; details: substrate peptide 500 nM
T2 construct: expressing a cytoplasmic domain of human EGFR (WT) with its N-terminus fused to a FLAG tag; FLAG (N); made in house; host or cells: insect Sf9 cells, baculovirus expression system
Description: as §1, §2, §3
The inhibitory activities of the compounds of the present invention against EGFR (WT) kinase activity were measured.
The materials, the measurement method, and the data analysis method were substantially the same as those shown in the above description regarding “Measurement of EGFR (T790M/L858R) Kinase Inhibitory Activity,” except that a kinase protein prepared by expressing a cytoplasmic domain of human EGFR (WT) with its N-terminus fused to a FLAG tag in insect Sf9 cells using a baculovirus expression system and then purifying it with anti-FLAG antibody agarose (Sigma-Aldrich) was used as the kinase protein, the final concentration of the substrate peptide was 500 nM, and the final concentration of ATP was […]. Finally, the IC50 value (nM) of each compound with respect to EGFR (WT) was determined by data analysis.

EGFR (T790M/L858R) = biological target: T3, EGFR (T790M/L858R) (Homo sapiens, UniProt P00533, L858R/T790M); assay: EGFR (T790M/L858R) kinase inhibitory activity; format: biochemical; details: ATP 1 μM, 25° C. for 120 minutes
T3 construct: purchased Carna Biosciences, Inc
Description: The inhibitory activities of the compounds of the present invention against EGFR (T790M/L858R) kinase activity were measured.
as §1, §2, §3

[1] = test system: HCC827 expressing EGFR (d746-750); assay: Growth inhibition, HCC827 expressing EGFR (d746-750); format: cell-based; details: Homo sapiens, HCC827, 72 h; cultured three days, CellTiter-Glo
Description: (§4) (1) A human […] lung cancer cell line NCI-H1975 expressing EGFR (T790M/L858R), (2) a human non-small cell lung cancer cell line HCC827 expressing EGFR (d746-750), and (3) a human epithelioid cancer cell line A431 expressing EGFR (WT) were each suspended in complete growth medium recommended by ATCC. The cell suspensions were seeded in each well of a 384-well flat microplate or a 96-well flat plate, and cultured in an incubator containing 5% carbon dioxide gas at 37° C. for one day. Each compound of the present invention was dissolved in DMSO, and serial dilutions of the test compound were prepared using DMSO (to a concentration 500 times the final concentration). The DMSO solution of the test compound or DMSO was diluted with complete growth medium, and the resulting solution was added to each well of the cell culture plate so that the final concentration of DMSO was 0.2%. Then, the cells were cultured in an incubator containing 5% carbon dioxide gas at 37° C. for three days. The number of cells was measured before the addition of the DMSO solution of the test compound, as well as after addition and culture by using a CellTiter-Glo Assay® (produced by Promega) according to a protocol recommended by Promega.
(§5) For each cell, the cell growth inhibition rates of the wells to which the test compounds at various concentrations were added were calculated by the following formula. Then, the obtained inhibition rates (%) at the respective concentrations were plotted for each test compound, and the GI50 value (nM), which is a test compound concentration at which the cell growth can be inhibited by 50%, was determined using XLfit curve-fitting software (IDBS). • Cell Growth Inhibition Rate (%)=(C−T)/(C−CO)×100 • T: Luminescence intensity of well cultured for three days after addition of the test compound solution • C: Luminescence intensity of well cultured for three days after addition of DMSO • C0: Luminescence intensity of well before addition of the test compound solution

EGFR (L858R) = biological target: T4, EGFR (L858R) (Homo sapiens, UniProt P00533, L858R); assay: EGFR (L858R) kinase inhibitory activity; format: biochemical; details: ATP 4 μM
T4 construct: purchased Carna Biosciences, Inc
Description: as §1, §2, §3
The inhibitory activities of the compounds of the present invention against EGFR (L858R) kinase activity were measured.
The materials, the measurement method, and the data analysis method were substantially the same as those shown in the above description regarding “Measurement of EGFR (T790M/L858R) Kinase Inhibitory Activity,” except that a purified recombinant human EGFR (L858R) protein purchased from Carna Biosciences, Inc. was used as the kinase protein, and the measurement was performed with ATP at a final concentration of 4 μM. Finally, the IC50 value (nM) of each compound with respect to EGFR (L858R) was determined by data analysis.

EGFR (d746-750/T790M) = biological target: T5, EGFR (d746-750/T790M) (Homo sapiens, UniProt P00533, DEL746-750/T790M); assay: EGFR (d746-750/T790M) kinase inhibitory activity; format: biochemical; details: ATP 1.5 μM
T5 construct: purchased Carna Biosciences, Inc
Description: as §1, §2, §3
The inhibitory activities of the compounds of the present invention against EGFR (d746-750/T790M) kinase activity were measured.
The materials, the measurement method, and the data analysis method were substantially the same as those shown in the above description regarding “Measurement of EGFR (T790M/L858R) Kinase Inhibitory Activity,” except that a purified recombinant human EGFR (d746-750/T790M) protein purchased from Carna Biosciences, Inc. was used as the kinase protein, and the measurement was performed with an ATP final concentration of 1.5 μM. Finally, the IC50 value (nM) of each compound with respect to EGFR (d746-750/T790M) was determined by data analysis.

[2] = test system: A431 expressing EGFR (WT); assay: Growth inhibition, A431 expressing EGFR (WT); format: cell-based; details: Homo sapiens, A-431, 72 h; cultured three days, CellTiter-Glo
Description: as §4, §5

[3] = test system: NCI-H1975 expressing EGFR (T790M/L858R); assay: Growth inhibition, NCI-H1975 expressing EGFR (T790M/L858R); format: cell-based; details: Homo sapiens, NCI-H1975, 72 h; cultured three days, CellTiter-Glo
Description: as §4, §5

T3 sequence (P00533 25-1210 T790M/L858R): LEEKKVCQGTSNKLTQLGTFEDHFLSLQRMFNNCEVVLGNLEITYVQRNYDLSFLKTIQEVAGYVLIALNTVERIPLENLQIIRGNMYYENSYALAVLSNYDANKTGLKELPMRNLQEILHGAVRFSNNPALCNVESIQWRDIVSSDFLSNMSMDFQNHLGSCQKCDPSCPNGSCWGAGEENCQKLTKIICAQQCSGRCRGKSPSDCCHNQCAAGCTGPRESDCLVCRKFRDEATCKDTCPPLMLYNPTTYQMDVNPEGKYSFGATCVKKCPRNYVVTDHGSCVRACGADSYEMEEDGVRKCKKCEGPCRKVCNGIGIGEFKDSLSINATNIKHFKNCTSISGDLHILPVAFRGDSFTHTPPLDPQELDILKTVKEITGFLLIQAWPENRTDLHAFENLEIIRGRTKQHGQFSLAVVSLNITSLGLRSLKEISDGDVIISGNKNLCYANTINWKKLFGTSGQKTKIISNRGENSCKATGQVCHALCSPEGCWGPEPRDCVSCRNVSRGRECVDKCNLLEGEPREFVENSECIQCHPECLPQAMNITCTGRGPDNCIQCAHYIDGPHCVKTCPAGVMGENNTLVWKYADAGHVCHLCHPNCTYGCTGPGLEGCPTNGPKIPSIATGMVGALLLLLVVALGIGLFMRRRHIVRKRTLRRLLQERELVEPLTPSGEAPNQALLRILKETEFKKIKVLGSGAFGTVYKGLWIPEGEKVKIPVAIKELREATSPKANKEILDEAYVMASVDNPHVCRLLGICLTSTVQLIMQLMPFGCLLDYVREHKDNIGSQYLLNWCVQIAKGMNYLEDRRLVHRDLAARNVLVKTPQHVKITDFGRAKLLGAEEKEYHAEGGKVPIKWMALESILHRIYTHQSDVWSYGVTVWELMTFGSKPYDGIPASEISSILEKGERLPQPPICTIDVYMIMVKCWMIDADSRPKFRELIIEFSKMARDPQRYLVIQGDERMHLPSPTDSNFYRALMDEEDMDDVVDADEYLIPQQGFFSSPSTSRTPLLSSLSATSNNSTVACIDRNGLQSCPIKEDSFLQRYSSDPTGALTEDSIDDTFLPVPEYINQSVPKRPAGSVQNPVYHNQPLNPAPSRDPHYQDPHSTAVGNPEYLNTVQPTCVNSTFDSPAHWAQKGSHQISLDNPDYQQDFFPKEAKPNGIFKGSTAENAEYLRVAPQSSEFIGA
T2 sequence (P00533 669-1210 limits assumed): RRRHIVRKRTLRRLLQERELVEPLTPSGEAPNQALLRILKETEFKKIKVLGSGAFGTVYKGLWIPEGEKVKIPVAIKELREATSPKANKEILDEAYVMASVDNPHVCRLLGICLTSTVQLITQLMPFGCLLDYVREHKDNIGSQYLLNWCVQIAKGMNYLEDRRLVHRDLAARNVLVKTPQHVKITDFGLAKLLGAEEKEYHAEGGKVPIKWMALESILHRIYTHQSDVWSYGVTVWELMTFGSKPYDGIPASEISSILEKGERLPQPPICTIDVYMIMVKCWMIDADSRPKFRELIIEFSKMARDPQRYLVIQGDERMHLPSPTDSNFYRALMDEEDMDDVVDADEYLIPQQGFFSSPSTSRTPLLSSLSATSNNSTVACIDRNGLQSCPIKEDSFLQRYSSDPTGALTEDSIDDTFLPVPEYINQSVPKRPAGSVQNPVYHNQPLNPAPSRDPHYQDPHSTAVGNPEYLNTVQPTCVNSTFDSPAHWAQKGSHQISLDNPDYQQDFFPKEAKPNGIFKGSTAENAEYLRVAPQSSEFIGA
T5 sequence (P00533 with tags, fused parts or gaps DEL746-750/T790M limits assumed): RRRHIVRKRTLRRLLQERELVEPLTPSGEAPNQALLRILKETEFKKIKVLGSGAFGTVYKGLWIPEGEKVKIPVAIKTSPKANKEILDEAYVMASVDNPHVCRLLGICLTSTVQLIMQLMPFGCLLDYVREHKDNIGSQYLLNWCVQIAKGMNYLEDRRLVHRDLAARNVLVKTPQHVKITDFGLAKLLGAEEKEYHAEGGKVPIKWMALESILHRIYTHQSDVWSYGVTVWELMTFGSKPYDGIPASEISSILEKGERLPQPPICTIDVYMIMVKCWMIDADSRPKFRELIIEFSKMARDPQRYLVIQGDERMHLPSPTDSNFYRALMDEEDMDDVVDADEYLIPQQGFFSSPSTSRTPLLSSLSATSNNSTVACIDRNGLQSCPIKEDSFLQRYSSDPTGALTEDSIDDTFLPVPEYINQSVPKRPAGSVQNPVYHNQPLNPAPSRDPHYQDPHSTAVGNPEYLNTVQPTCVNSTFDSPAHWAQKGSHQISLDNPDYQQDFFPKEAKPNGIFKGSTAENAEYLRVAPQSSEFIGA
T4 sequence (P00533 25-1210 L858R): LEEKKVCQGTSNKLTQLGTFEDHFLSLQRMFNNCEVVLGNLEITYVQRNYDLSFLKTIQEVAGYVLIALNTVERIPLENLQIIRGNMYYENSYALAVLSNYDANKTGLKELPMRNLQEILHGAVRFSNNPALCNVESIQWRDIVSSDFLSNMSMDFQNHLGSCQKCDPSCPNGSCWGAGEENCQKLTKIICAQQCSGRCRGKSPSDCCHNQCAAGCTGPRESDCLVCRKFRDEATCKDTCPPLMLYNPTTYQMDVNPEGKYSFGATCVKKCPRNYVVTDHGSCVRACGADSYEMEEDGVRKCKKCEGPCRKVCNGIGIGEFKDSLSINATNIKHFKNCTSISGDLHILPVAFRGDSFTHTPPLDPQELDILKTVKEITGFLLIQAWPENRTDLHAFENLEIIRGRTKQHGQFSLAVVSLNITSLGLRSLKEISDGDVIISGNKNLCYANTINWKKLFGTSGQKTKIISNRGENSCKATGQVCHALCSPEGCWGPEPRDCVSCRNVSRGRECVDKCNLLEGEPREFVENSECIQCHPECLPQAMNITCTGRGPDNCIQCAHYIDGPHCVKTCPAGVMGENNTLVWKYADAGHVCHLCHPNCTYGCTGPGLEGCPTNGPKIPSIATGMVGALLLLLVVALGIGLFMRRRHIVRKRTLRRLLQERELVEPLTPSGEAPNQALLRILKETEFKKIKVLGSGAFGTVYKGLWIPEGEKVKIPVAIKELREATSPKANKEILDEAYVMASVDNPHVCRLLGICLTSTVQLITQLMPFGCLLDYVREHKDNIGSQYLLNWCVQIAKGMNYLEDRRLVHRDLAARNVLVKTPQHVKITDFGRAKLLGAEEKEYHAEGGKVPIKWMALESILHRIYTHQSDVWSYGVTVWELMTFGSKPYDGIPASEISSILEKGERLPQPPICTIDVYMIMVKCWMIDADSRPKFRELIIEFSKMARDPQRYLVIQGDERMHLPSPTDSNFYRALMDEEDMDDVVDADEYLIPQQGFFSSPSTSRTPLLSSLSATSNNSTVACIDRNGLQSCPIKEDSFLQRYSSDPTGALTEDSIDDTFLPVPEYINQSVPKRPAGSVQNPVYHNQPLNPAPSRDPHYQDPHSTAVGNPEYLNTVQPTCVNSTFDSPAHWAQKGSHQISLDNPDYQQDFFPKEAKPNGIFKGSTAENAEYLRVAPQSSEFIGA
T1 sequence (P00533 with tags, fused parts or gaps DEL746-750 limits assumed): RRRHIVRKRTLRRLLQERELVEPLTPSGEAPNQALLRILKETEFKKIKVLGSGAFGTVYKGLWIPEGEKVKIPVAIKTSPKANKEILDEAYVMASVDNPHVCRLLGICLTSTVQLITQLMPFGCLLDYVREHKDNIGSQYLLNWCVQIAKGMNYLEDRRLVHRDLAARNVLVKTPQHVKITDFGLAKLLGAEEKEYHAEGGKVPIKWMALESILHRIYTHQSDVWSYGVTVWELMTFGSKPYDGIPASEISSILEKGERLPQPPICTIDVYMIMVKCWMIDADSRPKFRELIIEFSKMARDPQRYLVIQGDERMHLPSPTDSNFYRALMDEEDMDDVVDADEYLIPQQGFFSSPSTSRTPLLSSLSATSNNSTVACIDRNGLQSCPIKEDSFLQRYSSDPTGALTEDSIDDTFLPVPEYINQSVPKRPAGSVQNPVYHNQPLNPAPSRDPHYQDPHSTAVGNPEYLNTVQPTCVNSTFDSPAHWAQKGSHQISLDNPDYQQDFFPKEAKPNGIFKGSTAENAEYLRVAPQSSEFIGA

Row | SMILES | pIC50 (EGFR (d746-750)) | pIC50 (EGFR (WT)) | pIC50 (EGFR (T790M/L858R)) | GI50 [1] | pIC50 (EGFR (L858R)) | pIC50 (EGFR (d746-750/T790M)) | GI50 [2] | GI50 [3]
1 | C=C1c2c(-c3cnc4ccccc4c3)c3c(N)ncnc3n2C[C@H]1NC(=O)/C=C/CN(C)C(C)C [Example 12, (S,E)-N-(4-amino-6-methylene-5-(quinolin-3-yl)-7,8-dihydro-6H-pyrimido[5,4-b]pyrrolizin-7-yl)-4-(isopropyl(methyl)amino)but-2-enamide] | 9.12 | 7.96 | 9.18 | 7.9 nM | 8.92 | 9.54 | 3500 nM | 240 nM
2 | C=CC(=O)N[C@@H]1CCn2c(c(-c3cnc4ccccc4c3)c3c(N)ncnc32)C1=C [Example 13, (R)—N-(4-amino-6-methylene-5-(quinolin-3-yl)-6,7,8,9-tetrahydropyrimido[5,4-b]indolizin-7-yl)acrylamide] | 8.68 | 7.62 | 8.68 | 13 nM | 8.55 | 8.96 | 1200 nM | 150 nM
3 | C=CC(=O)N[C@H]1C=C(C)c2c(-c3cnc4ccccc4c3)c3c(N)ncnc3n2C1 [Example 14, (S)—N-(4-amino-6-methyl-5-(quinolin-3-yl)-8,9-dihydropyrimido[5,4-b]indolizin-8-yl)acrylamide] | 9.72 | 8.54 | 9.62 | 2.5 nM | 9.49 | > 9.30 | 1900 nM | 22 nM
4 | C=CC(=O)N[C@H]1CC(=C)c2c(-c3cnc4ccccc4c3)c3c(N)ncnc3n2C1 [Example 15, (S)—N-(4-amino-6-methylene-5-(quinolin-3-yl)-6,7,8,9-tetrahydropyrimido[5,4-b]indolizin-8-yl)acrylamide] | 8.85 | 8.10 | 8.80 | 22 nM | 8.89 | 8.92 | 2000 nM | 85 nM
5 | C=CC(=O)N[C@@H]1C=C(C)c2c(-c3cnc4ccccc4c3)c3c(N)ncnc3n2C1 [Example 16, (R)—N-(4-amino-6-methyl-5-(quinolin-3-yl)-8,9-dihydropyrimido[5,4-b]indolizin-8-yl)acrylamide] | 7.82 | 6.32 | 7.96 | 27 nM | 7.41 | 8.52 | > 10000 nM | 600 nM
6 | C=CC(=O)N[C@@H]1CC(=C)c2c(-c3cnc4ccccc4c3)c3c(N)ncnc3n2C1 [Example 17, (R)—N-(4-amino-6-methylene-5-(quinolin-3-yl)-6,7,8,9-tetrahydropyrimido[5,4-b]indolizin-8-yl)acrylamide] | 7.41 | 6.24 | 7.64 | 160 nM | 7.30 | 7.96 | > 10000 nM | 2900 nM

The next lines start with the values.

Row | pIC50 (EGFR (d746-750)) | pIC50 (EGFR (WT)) | pIC50 (EGFR (T790M/L858R)) | GI50 [1] | pIC50 (EGFR (L858R)) | pIC50 (EGFR (d746-750/T790M)) | GI50 [2] | GI50 [3] | SMILES
7 | 8.35 | 7.17 | 8.33 | 8.9 nM | 7.92 | 8.89 | 4000 nM | 160 nM | C=CC(=O)N[C@@H]1CCn2c(c(-c3cnc4ccccc4c3)c3c(N)ncnc32)C(=C)C1 [Example 18, (S)—N-(4-amino-6-methylene-5-(quinolin-3-yl)-7,8,9,10-tetrahydro-6H-pyrimido[5′,4′:4,5]pyrrolo[1,2-a]azepin-8-yl)acrylamide]
8 | 9.38 | 8.66 | 9.59 | 5.6 nM | 9.57 | 9.55 | 990 nM | 49 nM | C=CC(=O)N[C@H]1C/C(=C\C)c2c(-c3cnc4ccccc4c3)c3c(N)ncnc3n2C1 [Example 19, (S,E)-N-(4-amino-6-ethylidene-5-(quinolin-3-yl)-6,7,8,9-tetrahydropyrimido[5,4-b]indolizin-8-yl)acrylamide]
9 | 9.14 | 8.11 | 9.22 | 8.1 nM | 8.96 | 9.47 | 2600 nM | 56 nM | C=CC(=O)N(C)[C@H]1Cn2c(c(-c3cnc4ccccc4c3)c3c(N)ncnc32)C1=C [Example 21, (R)—N-(4-amino-6-methylene-5-(quinolin-3-yl)-7,8-dihydro-6H-pyrimido[5,4-b]pyrrolizin-7-yl)-N-methylacrylamide]
